Test results: patent US20110130370A1, “Pharmaceutical composition comprising a strontium salt, vitamin D and A cyclodextrin” (LES LABORATORIES SERVIER, priority 2009, published 2011)

Assay: Stability of the vitamin D3+RAMEB complex at 40° C./75% RH in sealed amber glass pill containers
Type: physicochemical
Protocol: The stability of the vitamin D3+RAMEB complex of Example 1B at 40° C./75% RH was tested and compare to the stability of: 1) pure vitamin D3, 2) a concentrate of vitamin D3 in powder form (DSM).
The study is carried out in pill containers of sealed amber glass (stopper of type for antibiotics, chlorobutyl, grey, D13—natural aluminium crimp-on cap D20 mm, tear-off lid).

## C=C1CC[C@H](O)C/C1=C/C=C1\CCC[C@]2(C)[C@@H]([C@H](C)CCCC(C)C)CC[C@@H]12 [pure vitamin D3, cholecalciferol]
t0
  % vitamin D3: 98.0%
t0 + 3 weeks, 40° C./75% RH
  % vitamin D3: 20.3%
t0 + 6 weeks, 40° C./75% RH
  % vitamin D3: 23.1%
